Data set [1] can be described thus: Solubility of drinabant in excipients. It counts as physicochemical. The procedure:
Drinabant may be added to a fixed volume of aqueous solution with and without various amounts of water soluble carriers such as Solutol HS 15 in screw capped bottles. […] Filtered solutions are then analyzed for drinabant concentration using an appropriate method such as UV/visible spectrophotometry at an appropriate wavelength (nm) or by HPLC.
Two different categories of excipients, described in the literature as injectable intravenously, were tested for the solubility of drinabant:
(§1) The chemical composition of the selected excipients, as well the solubility of drinabant, are renorted in the table below.

A short description of data set [2]: Stability at RT of drinabant in the saturated solution. It counts as physicochemical.
Excerpt: as §1

For data set [3] the following is noted: cited from earlier work.

Where only a bound is given, the exact number is not on record here.

Take `CS(=O)(=O)N(c1cc(F)cc(F)c1)C1CN(C(c2ccc(Cl)cc2)c2ccc(Cl)cc2)C1` [drinabant]: the drinabant solubility in data set [1] (in Cremophor EL (POE hydrogenated castor oil)) was 49.4 mg/g; in data set [1] (in Glycerol) it was <<0.0001 mg/g; in data set [1] (in Glycofurol) it was 139.4 mg/g; in data set [1] (in PEG 400), 50 mg/g; in data set [1] (in PS80 VG (POE monooleate)), 48.8 mg/g; in data set [1] (in Propylene glycol), 7 mg/g. Further, the drinabant solubility in data set [1] (in Solutol HS15 (PEG hydroxystearate), at 40° C.) is listed as 64.6 mg/g. The “Stability at RT of drinabant in the saturated solution” value in data set [2] (in Cremophor EL), in data set [2] (in PS80 VG) and in data set [2] (in Solutol HS15) was “Stable” throughout. Moreover, the Tmax in data set [3] (oral drinabant) is given as greater than 3 h. Moreover, the safety and tolerability entry in data set [3] (oral, up to 240 mg up to 3 weeks (Phase I), 60 mg up to 24 weeks (Phase II)) is “safe and well tolerated”.

The record behind these values is patent US20200397749A1, “COMPOSITIONS AND METHODS FOR TREATING ACUTE CANNABINOID OVERDOSE WITH A CANNABINOID RECEPTOR ANTAGONIST” (Opiant Pharmaceuticals, Inc., priority 2019, published 2020).
